In patent publication US20140107100A1, “Benzoxazepines as Inhibitors of PI3K/mTOR and Methods of Their Use and Manufacture” (EXELIXIS, INC., priority 2010, published 2014):

Biological target: mTOR/GbL/Raptor (mTORC1) (Homo sapiens, UniProt P42345)
Test: mTOR/GbL/Raptor (mTORC1) ELISA assay, phosphorylation of 4E-BP1
Assay type: biochemical
Details: 0.2 nM mTORC1, 40 uM ATP, 50 nM NHis-tagged 4E-BP1, 120 minutes; read-out: IC50 in this assay (mTORC1 ELISA)
Method: The measurement of mTORC1 enzyme activity was performed in an ELISA assay format following the phosphorylation of 4E-BP1 protein. All experiments were performed in the 384-well format. Generally, 0.5 μL DMSO containing varying concentrations of the test Compound was mixed with 15 μL enzyme solution. Kinase reactions were initiated with the addition of 15 μL of substrates-containing solution. The assay conditions were-as follows; 0.2 nM mTORC1, 40 uM ATPand 50 nM NHis-tagged4E-BP1 in20 mM Hepes, pH 7.2, 1 mM DTT, 50 mMNaC1, 10 mM MnC12, 0.02 mg/mL BSA, 0.01% CHAPS, 50 mM β-glycerophosphate. Following an incubation of 120 minutes at anibient temperature, 20 μL of the reaction volume was transferred to a Ni-Chelate-coated 384-well plate. The binding step of the 4E-BP1 protein proceeded for 60 minutes, followed by washing 4 times each with 50 uL of Tris-buffered saline solution (TBS). Anti-phospho-4E-BPl rabbit-IgG ([…]. 1:5000) in 5% BSA-TBST (0.2% Tween-20 in TBS) was added and further incubated for 60 minutes. Incubation with a secondary HRP-tagged anti-IgG was similarly performed after washing off the primary antibody (4 washes of 50 μL). Following the final wash step with TBST, 20 μL of SuperSignal ELISA Femto (Pierce Biotechnology) was added and the luminescence measured using an En Vision plate reader.

Row | IC50 [µM] | SMILES
1 | ≤ 0.1 | Cc1nc2ccc(-c3cc(C)c4c(c3)CN(c3nc(N)nc(C)c3C(C)C)CCO4)cc2[nH]1 [Compound 2, 4-methyl-5-(1-methylethyl)-6-[9-methyl-7-(2-methyl-1H-benzimidazol-6-yl)-2,3-dihydro-1,4-benzoxazepin-4(5H)-yl]pyrimidin-2-amine]
2 | ≤ 0.1 | Cc1cc(-c2cnc3sc(N)nc3c2)cc2c1OCCN(c1nc(N)nc(C)c1C(C)C)C2 [Compound 3, 6-{4-[2-amino-6-methyl-5-(1-methylethyl)pyrimidin-4-yl]-9-methyl-2,3,4,5-tetrahydro-1,4-benzoxazepin-7-yl}[1,3]thiazolo[5,4-b]pyridin-2-amine]
3 | ≤ 0.1 | Cc1cc(-c2cnc(N)c(S(N)(=O)=O)c2)cc2c1OCCN(c1nc(N)nc(C)c1C(C)C)C2 [Compound 5, 2-amino-5-{4-[2-amino-6-methyl-5-(1-methylethyl)pyrimidin-4-yl]-9-methyl-2,3,4,5-tetrahydro-1,4-benzoxazepin-7-yl}pyridine-3-sulfonamide]
4 | ≤ 0.1 | Cc1cc(-c2cnc(Cl)c(NS(C)(=O)=O)c2)cc2c1OCCN(c1nc(N)nc(C)c1C(C)C)C2 [Compound 6, N-(5-{4-[2-amino-6-methyl-5-(1-methylethyl)pyrimidin-4-yl]-9-methyl-2,3,4,5-tetrahydro-1,4-benzoxazepin-7-yl}-2-chloropyridin-3-yl)methanesulfonamide]
5 | 0.1 to 0.5 | Cc1cc(-c2cnc3sc(N)nc3c2)cc2c1OCCN(c1nc(N)nc(C)c1C)C2 [Compound 7, 6-[4-(2-amino-5,6-dimethylpyrimidin-4-yl)-9-methyl-2,3,4,5-tetrahydro-1,4-benzoxazepin-7-yl][1,3]thiazolo[5,4-b]pyridin-2-amine]
6 | ≤ 0.1 | CCc1c(C)nc(N)nc1N1CCOc2c(C)cc(-c3cnc4sc(N)nc4c3)cc2C1 [Compound 8, 6-[4-(2-amino-5-ethyl-6-methylpyrimidin-4-yl)-9-methyl-2,3,4,5-tetrahydro-1,4-benzoxazepin-7-yl][1,3]thiazolo[5,4-b]pyridin-2-amine]
7 | ≤ 0.1 | C=Cc1c(C)nc(N)nc1N1CCOc2c(C)cc(-c3cnc4sc(N)nc4c3)cc2C1 [Compound 9, 6-[4-(2-amino-5-ethenyl-6-methylpyrimidin-4-yl)-9-methyl-2,3,4,5-tetrahydro-1,4-benzoxazepin-7-yl][1,3]thiazolo[5,4-b]pyridin-2-amine]
8 | ≤ 0.1 | Cc1cc(-c2cnc3sc(N)nc3c2)cc2c1OCCN(c1nc(N)nc3c1CC(C)(C)CC3)C2 [Compound 10, 4-[7-(2-amino[1,3]thiazolo[5,4-b]pyridin-6-yl)-9-methyl-2,3-dihydro-1,4-benzoxazepin-4(5H)-yl]-6,6-dimethyl-5,6,7,8-tetrahydroquinazolin-2-amine]
9 | ≤ 0.1 | Cc1cc(-c2cnc3sc(N)nc3c2)cc2c1OCCN(c1nc(N)ncc1C(C)C)C2 [Compound 11, 6-{4-[2-amino-5-(1-methylethyl)pyrimidin-4-yl]-9-methyl-2,3,4,5-tetrahydro-1,4-benzoxazepin-7-yl}[1,3]thiazolo[5,4-b]pyridin-2-amine]
10 | ≤ 0.1 | Cc1cc(-c2cnc3sc(N)nc3c2)cc2c1OCCN(c1nc(N)ncc1C(F)(F)F)C2 [Compound 12, 6-{4-[2-amino-5-(trifluoromethyl)pyrimidin-4-yl]-9-methyl-2,3,4,5-tetrahydro-1,4-benzoxazepin-7-yl}[1,3]thiazolo[5,4-b]pyridin-2-amine]
11 | 0.1 to 0.5 | Cc1cc(-c2cnc3sc(N)nc3c2)cc2c1OCCN(c1ncc(C(F)(F)F)c(N)n1)C2 [Compound 13, 6-{4-[4-amino-5-(trifluoromethyl)pyrimidin-2-yl]-9-methyl-2,3,4,5-tetrahydro-1,4-benzoxazepin-7-yl}[1,3]thiazolo[5,4-b]pyridin-2-amine]
12 | ≤ 0.1 | Cc1cc(-c2cnc(Cl)c(NS(C)(=O)=O)c2)cc2c1OCCN(c1nc(N)ncc1C(F)(F)F)C2 [Compound 14, N-(5-{4-[2-amino-5-(trifluoromethyl)pyrimidin-4-yl]-9-methyl-2,3,4,5-tetrahydro-1,4-benzoxazepin-7-yl}-2-chloropyridin-3-yl)methanesulfonamide]
13 | 0.1 to 0.5 | Cc1cc(-c2cnc(Cl)c(NS(C)(=O)=O)c2)cc2c1OCCN(c1ncc(C(F)(F)F)c(N)n1)C2 [Compound 15, N-(5-{4-[4-amino-5-(trifluoromethyl)pyrimidin-2-yl]-9-methyl-2,3,4,5-tetrahydro-1,4-benzoxazepin-7-yl}-2-chloropyridin-3-yl)methanesulfonamide]
14 | ≤ 0.1 | COCCc1c(C)nc(N)nc1N1CCOc2c(C)cc(-c3cnc4sc(N)nc4c3)cc2C1 [Compound 16, 6-(4-{2-amino-6-methyl-5-[2-(methyloxy)ethyl]pyrimidin-4-yl}-9-methyl-2,3,4,5-tetrahydro-1,4-benzoxazepin-7-yl)[1,3]thiazolo[5,4-b]pyridin-2-amine]
15 | 0.1 to 0.5 | Cc1cc(-c2cncc(NS(C)(=O)=O)c2)cc2c1OCCN(c1nc(N)nc(C)c1C(C)C)C2 [Compound 18, N-(5-{4-[2-amino-6-methyl-5-(1-methylethyl)pyrimidin-4-yl]-9-methyl-2,3,4,5-tetrahydro-1,4-benzoxazepin-7-yl}pyridin-3-yl)methanesulfonamide]
16 | ≤ 0.1 | Cc1nc2c(c(N3CCOc4c(C)cc(-c5cnc6sc(N)nc6c5)cc4C3)n1)CC(C)(C)CC2 [Compound 20, 6-[9-methyl-4-(2,6,6-trimethyl-5,6,7,8-tetrahydroquinazolin-4-yl)-2,3,4,5-tetrahydro-1,4-benzoxazepin-7-yl][1,3]thiazolo[5,4-b]pyridin-2-amine]
17 | ≤ 0.1 | COc1ncc(-c2cc(C)c3c(c2)CN(c2nc(N)nc(C)c2C(C)C)CCO3)cc1NS(C)(=O)=O [Compound 21, N-[5-{4-[2-amino-6-methyl-5-(1-methylethyl)pyrimidin-4-yl]-9-methyl-2,3,4,5-tetrahydro-1,4-benzoxazepin-7-yl}-2-(methyloxy)pyridin-3-yl]methanesulfonamide]
18 | ≤ 0.1 | CNC(=O)c1sc(N2CCOc3c(C)cc(-c4cnc(Cl)c(NS(C)(=O)=O)c4)cc3C2)nc1C(C)C [Compound 22, 2-[7-{6-chloro-5-[(methylsulfonyl)amino]pyridin-3-yl}-9-methyl-2,3-dihydro-1,4-benzoxazepin-4(5H)-yl]-N-methyl-4-(1-methylethyl)-1,3-thiazole-5-carboxamide]
19 | ≤ 0.1 | Cc1cc(-c2cnc3sc(N)nc3c2)cc2c1OCCN(c1ncnc3c1CC(C)(C)C=C3)C2 [Compound 23, 6-[4-(6,6-dimethyl-5,6-dihydroquinoazolin-4-yl)-9-methyl-2,3,4,5-tetrahydro-1,4-benzoxazepin-7-yl][1,3]thiazolo[5,4-b]pyridin-2-amine]
20 | 0.1 to 0.5 | Cc1cc(-c2ccc(N)nc2)cc2c1OCCN(c1nc(N)nc(C)c1C(C)C)C2 [Compound 24, 4-[7-(6-aminopyridin-3-yl)-9-methyl-2,3-dihydro-1,4-benzoxazepin-4(5H)-yl]-6-methyl-5-(1-methylethyl)pyrimidin-2-amine]
21 | 0.1 to 0.5 | Cc1cc(-c2cnc3sc(N)nc3c2)cc2c1OCCN(c1nccc(N)n1)C2 [Compound 25, 6-[4-(4-aminopyrimidin-2-yl)-9-methyl-2,3,4,5-tetrahydro-1,4-benzoxazepin-7-yl][1,3]thiazolo[5,4-b]pyridin-2-amine]
22 | 0.1 to 0.5 | Cc1cc(-c2cnc3sc(N)nc3c2)cc2c1OCCN(c1ncc(C#N)c(N)n1)C2 [Compound 26, 4-amino-2-[7-(2-amino[1,3]thiazolo[5,4-b]pyridin-6-yl)-9-methyl-2,3-dihydro-1,4-benzoxazepin-4(5H)-yl]pyrimidine-5-carbonitrile]
23 | 0.1 to 0.5 | Cc1cc(-c2cnc3sc(N)nc3c2)cc2c1OCCN(c1ncc(C(N)=O)c(N)n1)C2 [Compound 27, 4-amino-2-[7-(2-amino[1,3]thiazolo[5,4-b]pyridin-6-yl)-9-methyl-2,3-dihydro-1,4-benzoxazepin-4(5H)-yl]pyrimidine-5-carboxamide]
24 | ≤ 0.1 | Cc1cc(-c2cnc(Cl)c(NS(C)(=O)=O)c2)cc2c1OCCN(c1ncc(C#N)c(N)n1)C2 [Compound 28, N-{5-[4-(4-amino-5-cyanopyrimidin-2-yl)-9-methyl-2,3,4,5-tetrahydro-1,4-benzoxazepin-7-yl]-2-chloropyridin-3-yl}methanesulfonamide]
25 | ≤ 0.1 | Cc1cc(-c2cnc3sc(N)nc3c2)cc2c1OCCN(c1ncnc3c1CC[C@H](C)C3)C2 [Compound 30, 6-{9-methyl-4-[(7S)-7-methyl-5,6,7,8-tetrahydroquinazolin-4-yl]-2,3,4,5-tetrahydro-1,4-benzoxazepin-7-yl}[1,3]thiazolo[5,4-b]pyridin-2-amine]
26 | ≤ 0.1 | Cc1cc(-c2cnc3sc(N)nc3c2)cc2c1OCCN(c1nc(CN(C)C)nc(C)c1C(C)C)C2 [Compound 31, 6-(4-{2-[(dimethylamino)methyl]-6-methyl-5-(1-methylethyl)pyrimidin-4-yl}-9-methyl-2,3,4,5-tetrahydro-1,4-benzoxazepin-7-yl)[1,3]thiazolo[5,4-b]pyridin-2-amine]
